Results taken from PubChem BioAssay AID2060890 (Molecular Pharmacology Branch, DTP, NCI, 2025).
Where “and” joins values, the source holds several entries; their conditions need not be identical. Identical values can stand only once.

System: LG0703-F948-PDC complex spheroid viability
Test: Anticancer human tumor LG0703-F948-PDC patient-derived lung adenocarcinoma cell line growth inhibition [RAS]
Details: for viability, T/C: stronger effect = lower value; active = viability on the fitted dose curve at most 10% of control; inactive = the rest
Procedure, shortened: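 Multi-cell-type spheroids: tumor cells plus HUVEC endothelial cells and mesenchymal stem cells. RAS-pathway inhibitors were combined with targeted agents, each dosed in half-log steps down from clinical Cmax, or from 10 microM when Cmax was unknown.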
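Also: spheroids exposed to agents for 7 days.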
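For viability, T/C in this document: 100% = DMSO vehicle wells.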

Cc1nc(N2CCC3(CC2)COC(C)C3N)c(CO)nc1Sc1ccnc(N)c1Cl (centres undefined)
inactive: viability, T/C (compound 0.0316 µM) 91.6% and 86.5% and 84.2% | viability, T/C (compound 0.1 µM) 68.1% and 83.2% and 66.4% | viability, T/C (compound 0.316 µM) 50.8% and 48.3% and 51.7% | viability, T/C (compound 1 µM) 36.9% and 35.6% and 34.5% | viability, T/C (compound 3.16 µM) 22% and 21.2% and 25.2% | viability, T/C (compound 10 µM) 11.4% and 12.8% and 12.1%
348 nM and 399 nM and 337 nM: IC50 (curve of compound)

NC1c2ccccc2OC12CCN(c1cnc3c(N4CCCc5ncccc54)n[nH]c3n1)CC2 (centres undefined) + C=CC(=O)N1CCN(c2nc(OCC3CCCN3C)nc3c(F)c(-c4nc(N)cc(C)c4C(F)(F)F)c(Cl)cc23)C(C)C1
active: viability, T/C (second compound 0.00316 µM, first compound 1 µM) 10.9% | viability, T/C (second compound 0.00316 µM, first compound 3.16 µM) 4.54% | viability, T/C (second compound 0.00316 µM, first compound 10 µM) 2.7% | viability, T/C (second compound 0.01 µM, first compound 1 µM) 8.08% | viability, T/C (second compound 0.01 µM, first compound 3.16 µM) 5.69% | viability, T/C (second compound 0.01 µM, first compound 10 µM) 1.86% | viability, T/C (second compound 0.0316 µM, first compound 3.16 µM) 4.57% | viability, T/C (second compound 0.0316 µM, first compound 10 µM) 1.97% | viability, T/C (second compound 0.1 µM, first compound 1 µM) 7.04% | viability, T/C (second compound 0.1 µM, first compound 3.16 µM) 4.16% | viability, T/C (second compound 0.1 µM, first compound 10 µM) 1.66% | viability, T/C (second compound 0.316 µM, first compound 1 µM) 8.03% | viability, T/C (second compound 0.316 µM, first compound 3.16 µM) 4.54% | viability, T/C (second compound 0.316 µM, first compound 10 µM) 1.99% | viability, T/C (second compound 1 µM, first compound 1 µM) 8.31% | viability, T/C (second compound 1 µM, first compound 3.16 µM) 6.93% | viability, T/C (second compound 1 µM, first compound 10 µM) 3.04%
47.8 nM: IC50 (curve of first compound, second compound 0.01 µM)
38.6 nM: IC50 (curve of first compound, second compound 0.00316 µM)
59.1 nM: IC50 (curve of first compound, second compound 0.316 µM)
41.6 nM: IC50 (curve of first compound, second compound 1 µM)
inactive: viability, T/C (second compound 0.00316 µM, first compound 0.0316 µM) 54.5% | viability, T/C (second compound 0.00316 µM, first compound 0.1 µM) 31.4% | viability, T/C (second compound 0.00316 µM, first compound 0.316 µM) 16% | viability, T/C (second compound 0.01 µM, first compound 0.0316 µM) 58.3% | viability, T/C (second compound 0.01 µM, first compound 0.1 µM) 35% | viability, T/C (second compound 0.01 µM, first compound 0.316 µM) 19.9% | viability, T/C (second compound 0.0316 µM, first compound 0.0316 µM) 55.8% | viability, T/C (second compound 0.0316 µM, first compound 0.1 µM) 34.1% | viability, T/C (second compound 0.0316 µM, first compound 0.316 µM) 20.5% | viability, T/C (second compound 0.0316 µM, first compound 1 µM) 10.8% | viability, T/C (second compound 0.1 µM, first compound 0.0316 µM) 60.3% | viability, T/C (second compound 0.1 µM, first compound 0.1 µM) 35.2% | viability, T/C (second compound 0.1 µM, first compound 0.316 µM) 22.8% | viability, T/C (second compound 0.316 µM, first compound 0.0316 µM) 69.5% | viability, T/C (second compound 0.316 µM, first compound 0.1 µM) 32.4% | viability, T/C (second compound 0.316 µM, first compound 0.316 µM) 17.3% | viability, T/C (second compound 1 µM, first compound 0.0316 µM) 56.2% | viability, T/C (second compound 1 µM, first compound 0.1 µM) 30.1% | viability, T/C (second compound 1 µM, first compound 0.316 µM) 19.4%
51.7 nM: IC50 (curve of first compound, second compound 0.1 µM)
42.8 nM: IC50 (curve of first compound, second compound 0.0316 µM)
